≈ marks a conversion by molar mass, not a printed value. One block for each molecule: values may come before it. Calls of active or inactive are those of the source. The rule behind the calls is not given here.
Tests used:
Staphylococcus aureus [1] = assay: Antibacterial activity against Staphylococcus aureus ATCC 29213 assessed as inhibition of bacterial growth incubated for 18 to 24 hrs by broth microdilution method; type: functional; conditions: time 18-24 hrs
Staphylococcus aureus [2] = assay: Antibacterial activity against methicillin-resistant Staphylococcus aureus (15 strains) assessed as inhibition of bacterial growth incubated for 18 to 24 hrs by broth microdilution method; type: functional; conditions: time 18-24 hrs
Staphylococcus aureus [3] = assay: Antibacterial activity against methicillin-resistant Staphylococcus aureus clinical isolate 16-1 infected in kunming mouse model assessed as survival rate at 10 mg/kg, iv pre-infected with bacteria for 10 mins followed by compound administration and measured for 7 days (reference value: 0 %); type: functional; conditions: 168 h, time 7 day
Staphylococcus aureus [4] = assay: Antibacterial activity against methicillin-resistant Staphylococcus aureus clinical isolate 16-1 infected in kunming mouse model assessed as survival rate at 7 mg/kg, iv pre-infected with bacteria for 10 mins followed by compound administration and measured for 7 days (reference value: 0 %); type: functional; conditions: 168 h, time 7 day
Staphylococcus aureus [5] = assay: Antibacterial activity against methicillin-resistant Staphylococcus aureus clinical isolate 16-1 infected in kunming mouse model assessed as survival rate at 5 mg/kg, iv pre-infected with bacteria for 10 mins followed by compound administration and measured for 7 days (reference value: 0 %); type: functional; conditions: 168 h, time 7 day
Staphylococcus aureus [6] = assay: Antibacterial activity against methicillin-resistant Staphylococcus aureus clinical isolate 16-1 infected in kunming mouse model assessed as survival rate at 3.5 mg/kg, iv pre-infected with bacteria for 10 mins followed by compound administration and measured for 7 days (reference value: 0 %); type: functional; conditions: 168 h, time 7 day
Staphylococcus aureus [7] = assay: Antibacterial activity against methicillin-resistant Staphylococcus aureus incubated for 18 hrs by CLSI protocol based broth microdilution method; type: functional
[8] = molecular target: T1, Ribonuclease P protein component (Staphylococcus aureus, UniProt P0A0H5); assay: Inhibition of Staphylococcus aureus RnpA-mediated RNA degradation incubated for 20 mins by fluorescence-based high through-put assay
T1 sequence (P0A0H5 whole entry): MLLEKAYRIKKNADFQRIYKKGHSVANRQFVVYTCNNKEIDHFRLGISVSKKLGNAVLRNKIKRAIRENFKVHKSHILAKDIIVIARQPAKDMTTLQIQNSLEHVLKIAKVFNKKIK

Staphylococcus aureus [9] = assay: Antibacterial activity against methicillin-resistant Staphylococcus aureus clinical isolate 16-1 infected in kunming mouse model assessed as survival rate at 20 mg/kg, iv pre-infected with bacteria for 10 mins followed by compound administration and measured for 7 days (reference value: 0 %); type: functional; conditions: 168 h, time 7 day
[10] = Cytotoxicity against human HepG2 cells assessed as reduction in cell viability incubated for 48 hrs by CCK8 assay; type: toxicity, cell-based
[11] = Cytotoxicity against HUVEC cells assessed as reduction in cell viability incubated for 48 hrs by CCK8 assay; type: toxicity, cell-based; conditions: human
[12] = Selectivity index, ratio of CC50 for cytotoxicity against human HepG2 cells to MIC for antibacterial activity against Staphylococcus aureus ATCC 29213; type: toxicity, cell-based; conditions: read-out: Selectivity Index
[13] = Selectivity index, ratio of CC50 for cytotoxicity against HUVEC cells to MIC for antibacterial activity against Staphylococcus aureus ATCC 29213; type: toxicity, cell-based; conditions: human, read-out: Selectivity Index
Staphylococcus aureus [14] = assay: Bacteriostatic activity against Staphylococcus aureus ATCC 29213 assessed as inhibition of bacterial growth at 1 times of MIC measured after 24 hrs by time-kill assay; type: functional, organism-based
Staphylococcus aureus [15] = assay: Bacteriostatic activity against Staphylococcus aureus ATCC 29213 assessed as inhibition of bacterial growth at 4 times of MIC measured after 24 hrs by time-kill assay; type: functional, organism-based
Staphylococcus aureus [16] = assay: Bactericidal activity against Staphylococcus aureus ATCC 29213 at 16 times of MIC measured after 24 hrs by time-kill assay; type: functional, organism-based
Staphylococcus aureus [17] = assay: Bacteriostatic activity against Staphylococcus aureus ATCC 29213 assessed as log reduction in bacterial colony counts at 4 times of MIC measured after 24 hrs by time-kill assay; type: functional
Staphylococcus aureus [18] = assay: Bactericidal activity against Staphylococcus aureus ATCC 29213 assessed as log reduction in bacterial colony counts at 16 times of MIC measured after 24 hrs by time-kill assay; type: functional
Staphylococcus aureus [19] = assay: Antibacterial activity against vancomycin intermediate and methicillin-resistant Staphylococcus aureus (2 strains) assessed as inhibition of bacterial growth incubated for 18 to 24 hrs by broth microdilution method; type: functional; conditions: time 18-24 hrs
Staphylococcus aureus [20] = assay: Antibacterial activity against methicillin-sensitive Staphylococcus aureus (8 strains) assessed as inhibition of bacterial growth incubated for 18 to 24 hrs by broth microdilution method; type: functional; conditions: time 18-24 hrs
[21] = tested on: Staphylococcus epidermidis; assay: Antibacterial activity against methicillin-resistant Staphylococcus epidermidis (11 strains) assessed as inhibition of bacterial growth incubated for 18 to 24 hrs by broth microdilution method; type: functional; conditions: time 18-24 hrs
[22] = tested on: Staphylococcus epidermidis; assay: Antibacterial activity against methicillin-sensitive Staphylococcus epidermidis (8 strains) assessed as inhibition of bacterial growth incubated for 18 to 24 hrs by broth microdilution method; type: functional; conditions: time 18-24 hrs
Enterococcus faecalis = assay: Antibacterial activity against Enterococcus faecalis (8 strains) assessed as inhibition of bacterial growth incubated for 18 to 24 hrs by broth microdilution method; type: functional; conditions: time 18-24 hrs
Enterococcus faecium = assay: Antibacterial activity against Enterococcus faecium (8 strains) assessed as inhibition of bacterial growth incubated for 18 to 24 hrs by broth microdilution method; type: functional; conditions: time 18-24 hrs
[23] = Metabolic stability in mouse liver microsomes assessed as half-life at 1 uM measured upto 60 mins in presence of NADPH by LC-MS/MS analysis; type: ADME, Microsome
[24] = Stability in mouse plasma assessed as half-life at 1 uM measured upto 120 mins by LC-MS/MS analysis; type: ADME, cell-free
Staphylococcus aureus [25] = assay: Antibacterial activity against methicillin-resistant Staphylococcus aureus clinical isolate 16-1 infected in kunming mouse model assessed as survival rate at 14 mg/kg, iv pre-infected with bacteria for 10 mins followed by compound administration and measured for 7 days (reference value: 0 %); type: functional; conditions: 168 h, time 7 day
DNA gyrase [26] = molecular target: T2, DNA gyrase (Staphylococcus aureus, UniProt P0A0K8+P20831); assay: Inhibition of Staphylococcus aureus DNA gyrase ATP hydrolysis activity using pBR322 DNA as substrate incubated for 30 mins in presence of ATP by ADP-Glo reagent based assay; type: protein-complex assay
[27] = molecular target: DNA gyrase (Staphylococcus aureus) (UniProt P0A0K8+P20831); assay: Inhibition of Staphylococcus aureus DNA gyrase supercoiling using […] pBR322 DNA as substrate assessed as reduction in supercoiled DNA incubated for 30 mins in presence of ATP by agarose gel electrophoresis; type: protein-complex assay; conditions: dose 0.01-100 µM
Staphylococcus aureus [28] = assay: Antibacterial activity against Staphylococcus aureus clinical isolates incubated for 18 hrs by Mueller-Hinton broth based assay; type: functional
DNA gyrase [29] = molecular target: T2, DNA gyrase; assay: Inhibition of Staphylococcus aureus DNA gyrase using supercoiled pBR322 as substrate preincubated for 1 hrs followed by proteinase K addition and measured after 30 mins by agarose gel electrophoresis; type: protein-complex assay
Topoisomerase IV [30] = molecular target: T3, Topoisomerase IV (Staphylococcus aureus, UniProt P0C1S7+P0C1U9); assay: Inhibition of Staphylococcus aureus DNA topoisomerase 4 using linear pBR322 as substrate preincubated for 10 mins followed by ATP addition and measured after 1 hrs ATP hydrolysis assay; type: protein-complex assay
Staphylococcus aureus [31] = assay: Antibacterial activity against Staphylococcus aureus ATCC 25923 incubated for 24 hrs by CLSI protocol based broth microdilution method; type: functional
Staphylococcus aureus [32] = assay: Antibacterial activity against methicillin-resistant Staphylococcus aureus incubated for 24 hrs by CLSI protocol based broth microdilution method; type: functional
DNA gyrase [33] = molecular target: T2, DNA gyrase; assay: Inhibition of Staphylococcus aureus DNA gyrase supercoiling using supercoiled pBR322 DNA as substrate incubated for 60 mins by ethidium bromide staining based analysis; type: protein-complex assay
Topoisomerase IV [34] = molecular target: T3, Topoisomerase IV; assay: Inhibition of Staphylococcus aureus DNA topoisomerase 4 decatenation activity incubated for 1 hrs by ethidium bromide staining based analysis; type: protein-complex assay

SMILES: CN[C@H](CC(C)C)C(=O)N[C@H]1C(=O)N[C@@H](CC(N)=O)C(=O)N[C@H]2C(=O)N[C@H]3C(=O)N[C@H](C(=O)N[C@H](C(=O)O)c4cc(O)cc(O)c4-c4cc3ccc4O)[C@H](O)c3ccc(c(Cl)c3)Oc3cc2cc(c3O[C@@H]2O[C@H](CO)[C@@H](O)[C@H](O)[C@H]2O[C@H]2C[C@](C)(N)[C@H](O)[C@H](C)O2)Oc2ccc(cc2Cl)[C@H]1O [VANCOMYCIN]
MIC (Staphylococcus aureus [1]): 1.56 µg/mL
MIC (Staphylococcus aureus [2]): 0.25 µg/mL (≈ 0.173 µM)
survival at 10 mg/kg (Staphylococcus aureus [3]): 60%
survival at 7 mg/kg (Staphylococcus aureus [4]): 50%
survival at 5 mg/kg (Staphylococcus aureus [5]): 50%
survival at 3.5 mg/kg (Staphylococcus aureus [6]): 20%

SMILES: Cc1ccc(C(=O)NC(=S)NNC(=O)c2ccc(Cl)cc2)cc1C
MIC (Staphylococcus aureus [7]): 16 µg/mL (≈ 44.2 µM)
IC50 [8]: > 50 µM

SMILES: CCCCCOc1ccc(C(=O)NNC(=S)NC(C)=O)cc1
survival at 20 mg/kg (Staphylococcus aureus [9]): 50%
MIC (Staphylococcus aureus [1]): 2.41 µM
CC50 at 48 h [10]: 2.37 µM
CC50 at 48 h [11]: 6.46 µM
selectivity ratio [12]: 0.98
selectivity ratio [13]: 2.68
Activity (Staphylococcus aureus [14]): Active
Activity (Staphylococcus aureus [15]): Active
Activity (Staphylococcus aureus [16]): Active
log(activity) (Staphylococcus aureus [17]): 2.51
log(activity) (Staphylococcus aureus [18]): 6.41
MIC (Staphylococcus aureus [2]): 2 µg/mL (≈ 6.18 µM)
MIC (Staphylococcus aureus [19]): 2 µg/mL (≈ 6.18 µM)
MIC (Staphylococcus aureus [20]): 1 µg/mL (≈ 3.09 µM)
MIC [21]: 0.5 µg/mL (≈ 1.55 µM)
MIC [22]: 1 µg/mL (≈ 3.09 µM)
MIC (Enterococcus faecalis): 4 µg/mL (≈ 12.4 µM)
MIC (Enterococcus faecium): 2 µg/mL (≈ 6.18 µM)
half-life at 1 µM [23]: 28.3 min
half-life at 1 µM [24]: > 120 min
survival at 14 mg/kg (Staphylococcus aureus [25]): 20%
survival at 10 mg/kg (Staphylococcus aureus [3]): 20%
survival at 7 mg/kg (Staphylococcus aureus [4]): 10%
IC50 (DNA gyrase [26]): 1.81 µM
inhibition [27]: Dose-dependent-effect

MIC (Staphylococcus aureus [28]): 8 µg/mL (≈ 23.6 µM)
IC50 (DNA gyrase [29]): > 50 µM
IC50 (Topoisomerase IV [30]): > 10 µM
SMILES: O=C(NC(=S)NNC(=O)c1cc2ccccc2[nH]1)c1ccccc1

SMILES: O=C(NC(=S)NNC(=O)c1cccc(Cl)c1Cl)c1ccc([N+](=O)[O-])cc1
MIC (Staphylococcus aureus [31]): 1.95 µg/mL (≈ 4.72 µM)
MIC (Staphylococcus aureus [32]): > 62.5 µg/mL
IC50 (DNA gyrase [33]): > 100 µM
IC50 (Topoisomerase IV [34]): > 100 µM
